Experimental data: article PMC7406541, “Vectorial transport of the arginine derivatives asymmetric dimethylarginine (ADMA) and L-homoarginine by OATP4C1 and P-glycoprotein studied in double-transfected MDCK cells” (Amino Acids, 2020)

Key:
[1] = biological target: human P-gp (Homo sapiens, UniProt P08183); assay: Transcellular basal to apical (vectorial) transport across MDCK-P-gp cell monolayers; conditions: for Average ratio of vectorial transport (relative to MDCK-VC cells): MDCK-P-gp, 1 h incubation
Sequence of human P-gp (P08183 whole entry): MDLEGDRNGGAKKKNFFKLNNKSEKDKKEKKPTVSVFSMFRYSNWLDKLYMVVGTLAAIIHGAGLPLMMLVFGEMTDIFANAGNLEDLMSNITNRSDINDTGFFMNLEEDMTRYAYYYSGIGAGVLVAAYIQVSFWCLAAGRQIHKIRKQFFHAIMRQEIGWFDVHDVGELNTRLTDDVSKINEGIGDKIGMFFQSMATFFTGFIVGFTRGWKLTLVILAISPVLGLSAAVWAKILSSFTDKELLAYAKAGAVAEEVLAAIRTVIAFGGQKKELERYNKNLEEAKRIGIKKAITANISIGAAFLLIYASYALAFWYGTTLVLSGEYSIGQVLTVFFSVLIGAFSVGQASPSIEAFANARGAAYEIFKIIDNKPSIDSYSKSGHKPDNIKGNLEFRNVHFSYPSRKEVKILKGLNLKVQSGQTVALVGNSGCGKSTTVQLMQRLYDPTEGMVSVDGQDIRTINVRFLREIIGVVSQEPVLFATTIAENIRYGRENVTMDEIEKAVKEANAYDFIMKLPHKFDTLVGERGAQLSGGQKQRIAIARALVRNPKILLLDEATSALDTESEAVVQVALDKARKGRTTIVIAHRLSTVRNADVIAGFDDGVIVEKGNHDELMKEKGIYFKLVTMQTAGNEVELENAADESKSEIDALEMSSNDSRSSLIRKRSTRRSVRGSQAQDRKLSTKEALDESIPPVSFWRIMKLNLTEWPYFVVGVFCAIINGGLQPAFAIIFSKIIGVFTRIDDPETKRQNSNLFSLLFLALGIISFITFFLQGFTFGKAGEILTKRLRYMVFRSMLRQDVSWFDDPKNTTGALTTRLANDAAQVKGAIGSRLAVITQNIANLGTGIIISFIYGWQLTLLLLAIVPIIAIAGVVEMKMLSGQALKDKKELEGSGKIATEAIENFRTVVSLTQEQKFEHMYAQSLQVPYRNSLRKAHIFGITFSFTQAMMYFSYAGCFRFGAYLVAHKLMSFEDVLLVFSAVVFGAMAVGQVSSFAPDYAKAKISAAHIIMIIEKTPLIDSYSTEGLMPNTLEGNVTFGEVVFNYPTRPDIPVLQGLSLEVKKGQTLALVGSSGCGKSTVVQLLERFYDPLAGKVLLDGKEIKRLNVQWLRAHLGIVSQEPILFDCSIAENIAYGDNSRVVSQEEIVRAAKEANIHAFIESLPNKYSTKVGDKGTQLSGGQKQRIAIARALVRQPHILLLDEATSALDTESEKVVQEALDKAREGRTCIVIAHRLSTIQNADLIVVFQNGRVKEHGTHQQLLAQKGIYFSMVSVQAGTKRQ

[2] = tested on: human OATP4C1 and human P-gp; assay: Transcellular basal to apical (vectorial) transport across double-transfected MDCK-OATP4C1-P-gp cell monolayers; conditions: for Time-dependent transcellular transport in MDCK-OATP4C1-P-gp cells compared to the other tested cell lines: all time points 1, 2, 3 and 4 h; for Transport ratio MDCK-OATP4C1-P-gp/MDCK-VC: 50 µM, basolateral to apical; for Average ratio of vectorial transport (relative to MDCK-VC cells): MDCK-OATP4C1-P-gp, 1 h incubation
[3] = tested on: MDCK-VC cells; assay: Transcellular basal to apical transport across MDCK-VC control cell monolayers; type: in vitro ADME; conditions: 1 µM, 1 h
Experimental: Transcellular transport in MDCK-OATP4C1-P-gp double-transfectants and respective MDCK-OATP4C1 and MDCK-P-gp single-transfectants as well as in the MDCK-VC control cell line was analyzed as previously described (Taghikhani et al. [2017]). Cells were cultured in Transwell membrane inserts (14 mm diameter, 0.4 µm pore size; Greiner Bio-One, Frickenhausen, Germany) in an initial density of 5 × 10^5 cells/well. Cells were cultivated at 37 °C for 48 h before inducing them by replacing the medium with fresh medium containing 10 mM of sodium butyrate. After 24 h of further incubation, cells were used for transcellular transport studies.
To study the transcellular transport, cells were washed with pre-warmed (37 °C) uptake buffer applied to both the basolateral and apical compartment. […] After incubating the cells for stated time points, the amount of radioactivity on the apical compartment was measured by liquid scintillation counting.
Concentration dependency of transcellular transport of ADMA and L-homoarginine was studied by applying the respective compound in concentrations of 1, 20, 50 and 100 µM on the basolateral compartment of MDCK transfectants. […] Cells were lysed and the cellular protein content was quantified as described. 400 µl (or 80 µl for time-dependency analysis) of the applied donor solutions were also analyzed by scintillation counting as reference. […]

[4] = parameters: method as in Kielstein et al. [2009]; conditions: ref Kielstein et al. [2009]; cited from earlier work
[5] = tested on: human OATP4C1; assay: Transcellular basal to apical (vectorial) transport across MDCK-OATP4C1 cell monolayers; conditions: 1 h incubation
[6] = tested on: OATP4C1; parameters: method as in Taghikhani et al. [2019]; conditions: ref Taghikhani et al. [2019]; read-out: Km value as substrate of OATP4C1; cited from earlier work
[7] = tested on: CAT1; parameters: method as in Chafai et al. [2017]; conditions: ref Chafai et al. [2017]; read-out: Km value for CAT1-mediated uptake; cited from earlier work

**Q.** Which “Transcellular transport in MDCK-P-gp in comparison to MDCK-VC” value ([1]; 5 µM, incubation time 1 h) does the source give for `C[C@H]1O[C@@H](O[C@H]2[C@@H](O)C[C@H](O[C@H]3[C@@H](O)C[C@H](O[C@H]4CC[C@@]5(C)[C@H](CC[C@@H]6[C@@H]5C[C@@H](O)[C@]5(C)[C@@H](C7=CC(=O)OC7)CC[C@]65O)C4)O[C@@H]3C)O[C@@H]2C)C[C@H](O)[C@@H]1O` [digoxin, reference compound] here?
**A.** 1.7 fold

**Q.** For `CN(C)C(N)=NCCC[C@H](N)C(=O)O` [ADMA, asymmetric dimethylarginine], which “Average ratio of vectorial transport (relative to MDCK-VC cells)” value (“Average ratio … (relative to MDCK-VC cells)” for short) ([1]; 1 µM basal) is on record?
**A.** 1.10

**Q.** And the “Average ratio … (relative to MDCK-VC cells)” value ([1]; 20 µM basal)?
**A.** 1.19

**Q.** What about the “Average ratio … (relative to MDCK-VC cells)” value ([1]; 50 µM basal) of the same molecule?
**A.** 1.20

**Q.** And the “Average ratio … (relative to MDCK-VC cells)” value ([1]; 100 µM basal)?
**A.** 1.30

**Q.** What about the “Transport ratio MDCK-OATP4C1-P-gp vs MDCK-VC” value ([2]; 1 µM, 1 h) of the same molecule?
**A.** 1.92 fold

**Q.** And the “Time-dependent transcellular transport in MDCK-OATP4C1-P-gp cells compared to the other tested cell lines” value ([2]; 1 µM)?
**A.** significantly higher

**Q.** And the “Transport ratio MDCK-OATP4C1-P-gp/MDCK-VC” value [2]?
**A.** 2.0 fold

**Q.** What about the Transcellular transport rate ([2]; MDCK-OATP4C1-P-gp cells, 1 µM, basal to apical, 1 h) of the same molecule?
**A.** 9.2 ± 1.2 pmol × mg protein^−1 × min^−1

**Q.** What about the “Average ratio … (relative to MDCK-VC cells)” value ([2]; 1 µM basal) of the same molecule?
**A.** 1.92

**Q.** And the “Average ratio … (relative to MDCK-VC cells)” value ([2]; 20 µM basal)?
**A.** 1.87

**Q.** What about the “Average ratio … (relative to MDCK-VC cells)” value ([2]; 50 µM basal) of the same molecule?
**A.** 2.00

**Q.** What about the “Average ratio … (relative to MDCK-VC cells)” value ([2]; 100 µM basal) of the same molecule?
**A.** 1.83

**Q.** And the Transcellular transport rate [3]?
**A.** 4.8 ± 0.4 pmol × mg protein^−1 × min^−1

**Q.** And the “Share excreted unchanged into urine” value [4]?
**A.** 20%

**Q.** What about the “Share taken up into proximal tubule cells that is metabolized (e.g. by DDAH1)” value [4] of the same molecule?
**A.** ~80%

**Q.** What about the “Average ratio … (relative to MDCK-VC cells)” value ([5]; 1 µM basal) of the same molecule?
**A.** 1.17

**Q.** What about the “Average ratio … (relative to MDCK-VC cells)” value ([5]; 20 µM basal) of the same molecule?
**A.** 1.19

**Q.** And the “Average ratio … (relative to MDCK-VC cells)” value ([5]; 50 µM basal)?
**A.** 1.14

**Q.** And the “Average ratio … (relative to MDCK-VC cells)” value ([5]; 100 µM basal)?
**A.** 1.20

**Q.** Which “Average ratio … (relative to MDCK-VC cells)” value ([1]; 1 µM basal) does the source give for `NC(N)=NCCCC[C@H](N)C(=O)O` [L-homoarginine] here?
**A.** 1.11

**Q.** What about the “Average ratio … (relative to MDCK-VC cells)” value ([1]; 20 µM basal) of the same molecule?
**A.** 1.61

**Q.** What about the “Average ratio … (relative to MDCK-VC cells)” value ([1]; 50 µM basal) of the same molecule?
**A.** 1.45

**Q.** What about the “Average ratio … (relative to MDCK-VC cells)” value ([1]; 100 µM basal) of the same molecule?
**A.** 1.43

**Q.** What about the “Time-dependent transcellular transport in MDCK-OATP4C1-P-gp cells compared to the other tested cell lines” value ([2]; 1 µM) of the same molecule?
**A.** significantly higher

**Q.** And the “Transport ratio MDCK-OATP4C1-P-gp/MDCK-VC” value [2]?
**A.** 3.4 fold

**Q.** And the “Average ratio … (relative to MDCK-VC cells)” value ([2]; 1 µM basal)?
**A.** 3.44

**Q.** What about the “Average ratio … (relative to MDCK-VC cells)” value ([2]; 20 µM basal) of the same molecule?
**A.** 3.94

**Q.** What about the “Average ratio … (relative to MDCK-VC cells)” value ([2]; 50 µM basal) of the same molecule?
**A.** 3.41

**Q.** And the “Average ratio … (relative to MDCK-VC cells)” value ([2]; 100 µM basal)?
**A.** 6.65

**Q.** What about the Km [6] of the same molecule?
**A.** 49.9 µM

**Q.** What about the “Average ratio … (relative to MDCK-VC cells)” value ([5]; 1 µM basal) of the same molecule?
**A.** 1.33

**Q.** And the “Average ratio … (relative to MDCK-VC cells)” value ([5]; 20 µM basal)?
**A.** 1.92

**Q.** And the “Average ratio … (relative to MDCK-VC cells)” value ([5]; 50 µM basal)?
**A.** 2.09

**Q.** And the “Average ratio … (relative to MDCK-VC cells)” value ([5]; 100 µM basal)?
**A.** 2.31

**Q.** What about the Km [7] of the same molecule?
**A.** 175 µM
